Source: patent US12497610B2, “Functional genomics using CRISPR-CAS systems for saturating mutagenesis of non-coding elements, compositions, methods, libraries and applications thereof” (THE BROAD INSTITUTE, INC., priority 2015, dated 2025)

Assays:
Format in all cases: cell-based, human
CUL3 = assay: ddPCR quantification of CUL3 expression in A375 cells transduced with individual sgRNAs; conditions: for decrease in CUL3 expression: A375, 7 days post-transduction, normalized to non-targeting sgRNAs; for CUL3 expression: A375, relative to non-targeting sgRNAs, result in words
Source text: Array Validation of Primary Screen Hits
For individual (array) validation of noncoding sgRNAs, Applicants first identified sgRNAs enriched in the top 5% of the library as given by the normalized log 2(Vemu/DMSO) read ratio. In order to have high confidence in these sgRNAs, Applicants used the minimum of the two infection replicates for the normalized log2 (Vemu/DMSO) read ratio. […] This ensures that putative noncoding functional elements were supported by the presence of at least 2 enriched sgRNAs. From this group, Applicants picked 25 sgRNAs distributed across different genomic regions for individual validation (see table S2 for a list of sgRNA sequences). Applicants also included 3 exon-targeting and 3 non-targeting sgRNAs to serve as positive and negative controls, respectively.
For each sgRNA, standard desalted short oligonucleotides (Integrated DNA Technologies) were annealed, phosphorylated and cloned into a lentiviral vector (lentiCRISPRv2, Addgene 52961) that contained Cas9 and an sgRNA cassette. For each sgRNA, A375 cells were transduced with lentiviral supernatants. After 24 hours, media was replaced with R10 with 1 ug/mL of puromycin. Viral volumes were titered such that 20-40% of cells survived after puromycin selection. After selection and expansion for 7 days in puromycin, cell were plated for DNA/RNA extraction, vemurafenib resistance, or ChIP assays.
RNA Extraction and ddPCR Quantification of CUL3 Expression
After 7 days of puromycin selection, A375 cells transduced with individual lentiCRISPRv2 sgRNAs were plated in 3 replicate wells (2×10^3 cells/well) in 96-well plates. After 4 days (70-90% confluent), RNA was extracted using a homemade version of a rapid lysis kit for quantitative PCR (similar to commercial “Cells-to-Ct”-style kits). This procedure (detailed below) enables rapid RNA extraction and qPCR/ddPCR readout from 96-well plates with minimal hands-on time.
Cells were first washed in 100 ul of chilled phosphate-buffered saline (PBS). Then, cells were incubated at room temperature for 8 minutes in 50 ul of Complete Lysis Buffer. The Complete Lysis Buffer consists of the Base Lysis Buffer with freshly added 100 ug/ml Proteinase K (Sigma P2308) and 300 U/mL DNase I (Sigma D2821). When adding DNase I, it is important to not vortex but mix only by gentle pipetting. The Base Lysis Buffer is made in RNAse-free water (ThermoFisher Scientific 10977015) with 10 mM Tris pH8 (Ambion AM9856), 0.5 mM MgCl2 (Sigma M1028), 0.44 mM CaCl2 (Sigma 21115), 10 uM DTT (Sigma 43816), 0.1% Triton X-114 (Calbiochem 648468), and 1.73 mN HCl (Sigma 318965) and should have a final pH of 7.8. The Base Lysis Buffer is stable at 4° C. for up to 6 months.
After the 8-minute incubation in Complete Lysis Buffer, 30 ul of the cell lysis was added to new PCR plates containing 3 ul of STOP buffer in each well to stop the lysis reaction. The STOP buffer is made in RNAse-free water with 1 mM Proteinase K inhibitor AAPF N-(Methoxysuccinyl)-Ala-Ala-Pro-Phe-chloromethyl ketone (SEQ ID NO: 174) (Millipore 539470), 90 mM EDTA (ThermoFisher Scientific 15575020), and 113 uM DTT (Sigma 43816). The final pH of the STOP buffer should be 8, adjusted appropriately with HCl and KOH. The STOP buffer is stable for up to 6 months at 20° C. The lysis reaction was mixed with the STOP buffer by pipetting up and down 5 times. Applicants then incubated the lysis and STOP buffer for at least 2 minutes but not more than 20 minutes. (Extra stopped lysis can be stored at −80° C. for up to 5 months.)
Applicants transferred 5 ul of the stopped lysis to new PCR plates with 20 ul of RT master mix. The RT master mix is from the RevertAid Reverse Transcriptase kit (ThermoFisher Scientific K1691) and is as described in the manufacturer's protocol but with an added oligo-dT primer. […]

FOS = assay: ChIP-ddPCR for FOS; conditions: ChIP-ddPCR compared with control cells
Method: (§1) Chromatin Immunoprecipitation (ChIP) for Histone Modifications and Transcription Factors
(§2) After 7 days of puromycin selection, A375 cells transduced with individual lentiCRISPRv2 sgRNAs were plated in T-225 flasks and grown to 70-90% confluence (6 days). At this point, chromatin fixation was initiated by adding formaldehyde directly to the growth media (final concentration 1%) and incubating at 37° C. for 10 minutes. The entire two-day ChIP procedure was performed using the Magna ChIP HiSens Chromatin Immunoprecipitation Kit (Millipore 1710460), as specified in the manufacturer's protocol. […]
(§3) Using BatchPrimer3, Applicants designed primers centered on the sgRNA target site with a target amplicon size of 80-120 bp (see table S4 for ChIP-ddPCR primers). Droplet digital PCR (ddPCR) reactions using EvaGreen (BioRad 1864034) were used to quantify changes between input, histone/TF ChIP, and IgG ChIP samples for A375 cells transduced with specific sgRNAs and untransduced A375 cells. […] Applicants calculated the percent change in ChIP signal after genome editing by normalizing each ChIP sample to its corresponding input sample and then comparing the normalized ChIP between A375s transduced with specific sgRNAs and untransduced (control) A375 cells.

JUN = assay: ChIP-ddPCR for JUN; conditions: ChIP-ddPCR compared with control cells
Method: as §1, §2, §3

ZNF263 = assay: ChIP-ddPCR for ZNF263; conditions: ChIP-ddPCR vs non-targeting sgRNA
Method: as §1, §2, §3

[1] = test system: sgRNA target sites near CUL3; assay: Deep sequencing after CRISPR mutagenesis (indel analysis at sgRNA target sites)
Method: Deep Sequencing after CRISPR Mutagenesis
After 7 days of puromycin selection, A375 cells transduced with individual lentiCRISPRv2 sgRNAs were plated in 2 replicate wells (2×10^3 cells/well) in 96-well plates. Cells were plated in either R10+DMSO or R10+vemurafenib (2 uM). After 4 days (70-90% confluent), Applicants extracted gDNA from all wells (Illumina/Epicentre QuickExtract QE09050) and performed amplification and deep sequencing as previously described (Shalem et al. 2014). Briefly, for each sgRNA target site, Applicants designed PCR primers to amplify genomic regions surrounding the site (100-200 bp amplicons) and to add universal handles for the second stage of amplification (see table S3 for all deep sequencing primers). Applicants then used a second PCR step to add sequences needed for Illumina sequencing and sample barcoding. Applicants pooled all samples together and sequenced them on a MiSeq using a 250 bp single-end read (Illumina MS-102-2002).
Custom Python scripts were used for barcode demultiplexing and insertion-deletion (indel) length measurement. To measure indel length and eliminate any potential off-target or primer-dimer reads, Applicants first identified our genomic (first PCR step) primers in each read. Applicants then checked that each read contained at least 5 bases beyond each of the genomic primers. Typically, 80-90% of demultiplexed reads matched this criterion. Reads matching this criterion were used to measure indel length by comparing distances between the identified primer-adjacent sequences with those in the reference sequence. Further multiple alignment analysis for specific sgRNAs was done using Geneious's iterative k-mer multiple alignment tool (Geneious 6.1.7).

CTCF = assay: ChIP-ddPCR for CTCF; conditions: ChIP-ddPCR at the site after editing
Method: as §1, §2, §3

YY1 = assay: ChIP-ddPCR for YY1; conditions: ChIP-ddPCR around cut site vs non-targeting sgRNA
Method: as §1, §2, §3

For “distal 3′ sg2: validation sgRNA GCAGCGTCCGGAGTTGGCAC, SEQ ID NO 444, 3′ of CUL3 (expressed or natural sequence)”, the “decrease in CUL3 expression” value (CUL3) was roughly 25%, the FOS binding (FOS) was “decreased” and the JUN binding (JUN) was “decreased”.

“Intron-sg1: validation sgRNA TCCGCGGCTGCTAGCAGCGC, SEQ ID NO 454, intron and promoter (expressed or natural sequence)” was tested, and the CUL3 expression (CUL3) was “decrease in CUL3 expression” and the ZNF263 occupancy (ZNF263) was “significant decrease”.

With “Intron-sg2: validation sgRNA CGCGGAGTCCTCCCTGTGTG, SEQ ID NO 455, intron and promoter (expressed or natural sequence)” the CUL3 expression (CUL3) was “decrease in CUL3 expression” and the ZNF263 occupancy (ZNF263) was “significant decrease”.

For “CTCF sg1: validation sgRNA GCCACAGCCATGCCCAGTOG, SEQ ID NO 446, 3′ of CUL3 (guide GCCACAGCCATGCCCAGTGG; expressed or natural sequence)”, the “decrease in CUL3 expression” value (CUL3) was 30%, the mean indel size ([1]; A375, deep sequencing of the site) was −9.5 bp and the “amplicons / alleles containing insertion-deletion (indel) mutations” value ([1]; A375 after 7 days selection) was 96%. The “decrease of CTCF occupancy” value (CTCF) was 45%.

For “distal 3′ sg1: validation sgRNA AGOACACAGTCATAACCACA, SEQ ID NO 445, 3′ of CUL3 (guide AGCACACAGTCATAACCACA; expressed or natural sequence)”, the “decrease in CUL3 expression” value (CUL3) was roughly 25%, the FOS binding (FOS) was “decreased” and the JUN binding (JUN) was “decreased”.

“5′-UTR sg2: validation sgRNA GCGCTCCTCCGCGATGGCGG, SEQ ID NO 456, 5′ UTR (expressed or natural sequence)” was tested, and the CUL3 expression (CUL3) was “significantly decrease”, the “indel mutations that damage a YY1 binding motif” value ([1]; A375, vemurafenib vs DMSO control, 4 days) was “more indel mutations that damage a YY1 binding motif” and the “decrease of YY1 binding” value (YY1) was 67%.
